In patent US11344564B1, “Method of treatment based on reduced monoamine oxidase a activity” (Lennham Pharmaceuticals, Inc., priority 2021, dated 2022):

Columns and labels:
human MAO-B = molecular target: T1, human MAO-B (Homo sapiens, UniProt P27338); experiment: in vitro metabolism of psilocin by human MAO-B; assay type: in vitro ADME; details: test compound 0.2 and 2 μM; protein 0.03, 0.1, 0.3 and 1 mg/ml; incubation 0-30 min, 37° C., pH 7.4, no cofactors (FIGS. 1C & 1D)
T1 sequence (P27338 1-520): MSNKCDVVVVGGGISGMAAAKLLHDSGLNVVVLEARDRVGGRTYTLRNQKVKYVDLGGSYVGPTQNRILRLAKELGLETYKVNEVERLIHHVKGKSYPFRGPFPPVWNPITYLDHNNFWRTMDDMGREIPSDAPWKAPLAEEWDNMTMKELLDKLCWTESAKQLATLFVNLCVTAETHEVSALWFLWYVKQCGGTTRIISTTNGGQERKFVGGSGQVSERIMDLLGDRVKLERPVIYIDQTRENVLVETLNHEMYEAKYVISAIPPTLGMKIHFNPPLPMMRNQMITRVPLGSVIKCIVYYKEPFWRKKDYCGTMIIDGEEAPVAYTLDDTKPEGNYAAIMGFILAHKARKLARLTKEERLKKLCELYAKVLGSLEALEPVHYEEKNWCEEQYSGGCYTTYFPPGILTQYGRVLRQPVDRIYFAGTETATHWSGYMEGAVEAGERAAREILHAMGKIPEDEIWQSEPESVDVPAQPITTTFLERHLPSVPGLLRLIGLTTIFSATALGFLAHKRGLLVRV

human MAO-A = molecular target: T2, human MAO-A (Homo sapiens, UniProt P21397); experiment: in vitro metabolism of psilocin by human MAO-A; assay type: in vitro ADME; details: test compound 0.2 and 2 μM; protein 0.03, 0.1, 0.3 and 1 mg/ml; incubation 0-30 min, 37° C., pH 7.4, no cofactors (FIGS. 1A & 1B)
T2 sequence (P21397 1-527): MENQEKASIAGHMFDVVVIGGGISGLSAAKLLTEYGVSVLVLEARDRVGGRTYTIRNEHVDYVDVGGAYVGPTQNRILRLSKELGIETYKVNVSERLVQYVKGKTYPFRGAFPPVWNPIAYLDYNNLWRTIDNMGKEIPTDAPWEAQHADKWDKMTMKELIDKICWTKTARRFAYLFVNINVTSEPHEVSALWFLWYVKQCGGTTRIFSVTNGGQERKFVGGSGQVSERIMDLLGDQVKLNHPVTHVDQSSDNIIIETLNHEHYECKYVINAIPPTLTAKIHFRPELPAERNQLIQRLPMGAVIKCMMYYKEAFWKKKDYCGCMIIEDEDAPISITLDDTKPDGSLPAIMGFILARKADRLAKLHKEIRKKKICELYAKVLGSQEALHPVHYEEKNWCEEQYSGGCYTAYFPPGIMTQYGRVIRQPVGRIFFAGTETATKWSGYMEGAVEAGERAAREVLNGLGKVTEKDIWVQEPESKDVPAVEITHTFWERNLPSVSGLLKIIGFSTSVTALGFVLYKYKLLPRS

Structure (SMILES): CN(C)CCc1c[nH]c2cccc(O)c12 [psilocin, 4-hydroxy-N,N-dimethyltryptamine]
- metabolism by human MAO-B (human MAO-B): not human MAO-B
- metabolism by human MAO-A (human MAO-A): is metabolized by human MAO-A
